This is an account of results in ChEMBL document CHEMBL1137138, “Synthesis and antiviral activity of P1' arylsulfonamide azacyclic urea HIV protease inhibitors” (Bioorg Med Chem Lett, 2004).

The nature of assay [1]: Antiviral activity against HIV virus. Format: functional.
The nature of assay [2]: Antiviral activity against HIV virus in absence of human serum. The class given is functional.
Assay [3] can be described thus: Antiviral activity against HIV virus in presence of 50% human serum. The class given is functional.
Assay [4] addresses Human immunodeficiency virus type 1 protease (Human immunodeficiency virus 1, UniProt Q72874). The experiment in a line: Tested for inhibition of HIV protease.

In assay [1], `O=C1N(Cc2ccc(O)cc2)[C@H](Cc2ccccc2)[C@H](O)CN(S(=O)(=O)c2cc(Cl)cc(Cl)c2)N1Cc1ccc(O)cc1` came in with an EC50 of 670 nM.
On to `Cc1ccc(S(=O)(=O)N2C[C@@H](O)[C@@H](Cc3ccccc3)N(Cc3ccc(O)cc3)C(=O)N2Cc2ccc(O)cc2)cc1`, for which the EC50 in assay [1] came to 870 nM.
With `CCCCN1C(=O)N(Cc2cccc(C(=N)NO)c2)[C@H](Cc2ccccc2)[C@H](O)CN1S(=O)(=O)c1cccc(Br)c1`, the values for the EC50 in assay [2] and in assay [3] were 160 nM and 2490 nM, respectively.
As to `CCCCN1C(=O)N(Cc2cccc(C(=N)NO)c2)[C@H](Cc2ccccc2)[C@H](O)CN1S(=O)(=O)c1cccc(N)c1`, the EC50 in assay [2] was determined as 30 nM; in assay [3] it was 2380 nM.
The corresponding values for `CCCCN1C(=O)N(Cc2cccc(C(=N)NO)c2)[C@H](Cc2ccccc2)[C@H](O)CN1S(=O)(=O)c1cccc(C(C)=O)c1` are 150 nM and 1090 nM.
Turning to `CCCCN1C(=O)N(Cc2cccc(C(=N)NO)c2)[C@H](Cc2ccccc2)[C@H](O)CN1S(=O)(=O)c1cccc(OC)c1`, in assay [3], the EC50 worked out at 560 nM.
In the case of `O=C(c1ccccc1)N1C[C@@H](O)[C@@H](Cc2ccccc2)N(Cc2ccc(O)cc2)C(=O)N1Cc1ccc(O)cc1`, in assay [4], the inhibition constant (Ki) worked out at 0.01 nM.
`CCCCN1C(=O)N(Cc2cccc(C(=N)NO)c2)[C@H](Cc2ccccc2)[C@H](O)CN1S(=O)(=O)c1cccc(/C(C)=N\O)c1`: the values for the EC50 in assay [2] and in assay [3] were 20 nM and 400 nM, respectively.
In assay [1], `COc1cccc(S(=O)(=O)N2C[C@@H](O)[C@@H](Cc3ccccc3)N(Cc3ccc(O)cc3)C(=O)N2Cc2ccc(O)cc2)c1` yielded an EC50 of 460 nM.
With `CCCCN1C(=O)N(Cc2cccc(C(=N)NO)c2)[C@H](Cc2ccccc2)[C@H](O)CN1S(=O)(=O)c1cccc(O)c1`, the figures for the EC50 in assay [2] and in assay [3] were 150 nM and 2560 nM, respectively.
On to `O=C1N(Cc2ccc(O)cc2)[C@H](Cc2ccccc2)[C@H](O)CN(S(=O)(=O)c2cccc(F)c2)N1Cc1ccc(O)cc1`, for which a half-maximal response in assay [1] (EC50) required 590 nM.
In the case of `O=C1N(Cc2ccc(O)cc2)[C@H](Cc2ccccc2)[C@H](O)CN(S(=O)(=O)c2ccccc2)N1Cc1ccc(O)cc1`, the midpoint of the response in assay [1], the EC50, lay at 450 nM. Moreover, the affinity in assay [4] corresponds to a Ki of 1.37 nM.
Take `Cc1cccc(S(=O)(=O)N2C[C@@H](O)[C@@H](Cc3ccccc3)N(Cc3ccc(O)cc3)C(=O)N2Cc2ccc(O)cc2)c1`: it took 920 nM to reach a half-maximal effect in assay [1] (EC50).
In the case of `O=C1N(Cc2ccc(O)cc2)[C@H](Cc2ccccc2)[C@H](O)CN(S(=O)(=O)c2ccc(Cl)cc2)N1Cc1ccc(O)cc1`, in assay [1], the concentration for a half-maximal effect (EC50) is 1100 nM.
`O=C1N(Cc2ccc(O)cc2)[C@H](Cc2ccccc2)[C@H](O)CN(S(=O)(=O)c2ccc(C(F)(F)F)cc2)N1Cc1ccc(O)cc1` came in with an EC50 in assay [1] of 1100 nM.
As to `O=C1N(Cc2ccc(O)cc2)[C@H](Cc2ccccc2)[C@H](O)CN(S(=O)(=O)c2cccc(Br)c2)N1Cc1ccc(O)cc1`, the EC50 in assay [1] is 420 nM.
With `CCCCN1C(=O)N(Cc2cccc(C(=N)NO)c2)[C@H](Cc2ccccc2)[C@H](O)CN1S(=O)(=O)c1cccc([N+](=O)[O-])c1`, the EC50 in assay [2] came out at 40 nM; in assay [3], 370 nM.
On to `O=C1N(Cc2ccc(O)cc2)[C@H](Cc2ccccc2)[C@H](O)CN(S(=O)(=O)c2ccc(Cl)cc2Cl)N1Cc1ccc(O)cc1`, for which the EC50 in assay [1] stood at 3200 nM.
The compound `O=C1N(Cc2ccc(O)cc2)[C@H](Cc2ccccc2)[C@H](O)CN(S(=O)(=O)c2ccc(Cl)c(Cl)c2)N1Cc1ccc(O)cc1` showed an EC50 in assay [1] of 940 nM.
On to `CCCCN1C(=O)N(Cc2cccc(C(=N)NO)c2)[C@H](Cc2ccccc2)[C@H](O)CN1S(=O)(=O)c1cccc(C(C)O)c1` (stereo not given in full), for which the EC50 came to 40 nM in assay [2] and 850 nM in assay [3].
`COc1ccc(S(=O)(=O)N2C[C@@H](O)[C@@H](Cc3ccccc3)N(Cc3ccc(O)cc3)C(=O)N2Cc2ccc(O)cc2)cc1` displayed an EC50 in assay [1] of 750 nM.
As for `N#Cc1cccc(S(=O)(=O)N2C[C@@H](O)[C@@H](Cc3ccccc3)N(Cc3ccc(O)cc3)C(=O)N2Cc2ccc(O)cc2)c1`, the EC50 in assay [1] amounted to 200 nM.
Still for that read-out and setting: the same measure for `O=C1N(Cc2ccc(O)cc2)[C@H](Cc2ccccc2)[C@H](O)CN(S(=O)(=O)c2cccc(Cl)c2Cl)N1Cc1ccc(O)cc1`: 560 nM; for `Cc1ccccc1S(=O)(=O)N1C[C@@H](O)[C@@H](Cc2ccccc2)N(Cc2ccc(O)cc2)C(=O)N1Cc1ccc(O)cc1`: 230 nM; for `O=C1N(Cc2ccc(O)cc2)[C@H](Cc2ccccc2)[C@H](O)CN(S(=O)(=O)c2cccc([N+](=O)[O-])c2)N1Cc1ccc(O)cc1`: 810 nM.
For the compound `C=Cc1cccc(S(=O)(=O)N2C[C@@H](O)[C@@H](Cc3ccccc3)N(Cc3cccc(C(=N)NO)c3)C(=O)N2CCCC)c1`, the EC50 turned out to be 220 nM in assay [2] and 1860 nM in assay [3].

The term EC50 denotes the midpoint of the concentration-response curve. By Ki is commonly meant a dissociation constant, usually derived from enzyme kinetics or from competition with a known ligand. Read a low Ki as higher affinity.
